Results: patent publication US7507727B2, “Substituted quinobenzoxazine analogs and methods of using thereof” (Cylene Pharmaceuticals, Inc., priority 2003, dated 2009)

target: c-Myc template DNA (c-myc quadruplex); test: Quadruplex binding / stop assay (Taq polymerase arrest, capillary electrophoresis); conditions: read-out: S DATA; Table 1D, stop assay data

Compound | IC50
COc1ccc(CCNC(=O)c2cn3c4c(c(N5CCC(N)C5)c(F)cc4c2=O)Oc2cc4ccccc4cc2-3)cc1OC (stereo not drawn) [compound 1705] | > 15 µM
NC1CCN(c2c(F)cc3c(=O)c(C(=O)NCCc4ccc(O)c(O)c4)cn4c3c2Oc2cc3ccccc3cc2-4)C1 (stereo not drawn) [compound 1706] | > 15 µM
NC1CCN(c2c(F)cc3c(=O)c(C(=O)NCCc4ccc(O)cc4)cn4c3c2Oc2cc3ccccc3cc2-4)C1 (stereo not drawn) [compound 1707] | > 15 µM
C[C@@H](O)CNC(=O)c1cn2c3c(c(N4CCC(N)C4)c(F)cc3c1=O)Oc1cc3ccccc3cc1-2 (stereo partly drawn) [compound 1708] | > 15 µM
C[C@H](O)CNC(=O)c1cn2c3c(c(N4CCC(N)C4)c(F)cc3c1=O)Oc1cc3ccccc3cc1-2 (stereo partly drawn) [compound 1709] | > 15 µM
CC(C)OCCCNC(=O)c1cn2c3c(c(N4CCC(N)C4)c(F)cc3c1=O)Oc1cc3ccccc3cc1-2 (stereo not drawn) [compound 1710] | > 15 µM
COc1ccccc1CCNC(=O)c1cn2c3c(c(N4CCC(N)C4)c(F)cc3c1=O)Oc1cc3ccccc3cc1-2 (stereo not drawn) [compound 1711] | > 15 µM
CC1CCCN(CCCNC(=O)c2cn3c4c(c(N5CCC(N)C5)c(F)cc4c2=O)Oc2cc4ccccc4cc2-3)C1 (stereo not drawn) [compound 1712] | > 15 µM
CC1CCCC(C)N1CCCNC(=O)c1cn2c3c(c(N4CCC(N)C4)c(F)cc3c1=O)Oc1cc3ccccc3cc1-2 (stereo not drawn) [compound 1713] | 0.75 µM
CN(C)c1cccc(CNC(=O)c2cn3c4c(c(N5CCC(N)C5)c(F)cc4c2=O)Oc2cc4ccccc4cc2-3)c1 (stereo not drawn) [compound 1714] | > 15 µM
CN(C)c1ccccc1CNC(=O)c1cn2c3c(c(N4CCC(N)C4)c(F)cc3c1=O)Oc1cc3ccccc3cc1-2 (stereo not drawn) [compound 1715] | > 15 µM
NCCCNC(=O)c1cn2c3c(c(N4CCC(N)C4)c(F)cc3c1=O)Oc1cc3ccccc3cc1-2 (stereo not drawn) [compound 1716] | 0.75 µM
CN1CCC(NC(=O)c2cn3c4c(c(N5CCC(N)C5)c(F)cc4c2=O)Oc2cc4ccccc4cc2-3)CC1 (stereo not drawn) [compound 1717] | 0.75 µM
CCCCN1CCC(CNC(=O)c2cn3c4c(c(N5CCC(N)C5)c(F)cc4c2=O)Oc2cc4ccccc4cc2-3)CC1 (stereo not drawn) [compound 1718] | 1.75 µM
CCN(CC)CCCC(C)NC(=O)c1cn2c3c(c(N4CCC(c5cnccn5)C4)c(F)cc3c1=O)Oc1cc3ccccc3cc1-2 (stereo not drawn) [compound 1719] | 3 µM
CCN(CC)CCCC(C)NC(=O)c1cn2c3c(c(N4CCC(c5cnccn5)C4)ccc3c1=O)Oc1cc3ccccc3cc1-2 (stereo not drawn) [compound 1720] | 1 µM
CCN(CC)CCCC(C)NC(=O)c1cn2c3c(c(N4CCC(c5cnccn5)C4)ccc3c1=O)Oc1ccccc1-2 (stereo not drawn) [compound 1721] | 3 µM
O=C(NCCN1CCCC1)c1cn2c3c(c(N4CCC(c5cnccn5)C4)ccc3c1=O)Oc1ccccc1-2 (stereo not drawn) [compound 1722] | 3 µM
O=C(NCCN1CCCC1)c1cn2c3c(c(N4CCC(c5cnccn5)C4)ccc3c1=O)Oc1cc3ccccc3cc1-2 (stereo not drawn) [compound 1723] | 1.5 µM
O=C(NCCN1CCCC1)c1cn2c3c(c(N4CCC(c5cnccn5)C4)c(F)cc3c1=O)Oc1ccccc1-2 (stereo not drawn) [compound 1724] | 11 µM
CCN(CC)CCCC(C)NC(=O)c1cn2c3c(c(N4CCC(c5cnccn5)C4)c(F)cc3c1=O)Oc1ccccc1-2 (stereo not drawn) [compound 1725] | 3 µM
O=C(NCCN1CCCC1)c1cn2c3c(c(N4CC5CCCNC5C4)c(F)cc3c1=O)Oc1ccccc1-2 (stereo not drawn) [compound 1728] | > 15 µM
CCN(CC)CCCC(C)NC(=O)c1cn2c3c(c(N4CC5CCCNC5C4)c(F)cc3c1=O)Oc1ccccc1-2 (stereo not drawn) [compound 1729] | > 15 µM
CCN(CC)CCCC(C)NC(=O)c1cn2c3c(c(N4CC5CCCNC5C4)ccc3c1=O)Oc1ccccc1-2 (stereo not drawn) [compound 1730] | > 15 µM

Compound | IC50
O=C(NCCN1CCCC1)c1cn2c3c(c(N4CC5CCCNC5C4)ccc3c1=O)Oc1ccccc1-2 (stereo not drawn) [compound 1731] | > 15 µM
CCN(CC)CCCC(C)NC(=O)c1cn2c3c(c(N4CC5CCCNC5C4)ccc3c1=O)Oc1cc3ccccc3cc1-2 (stereo not drawn) [compound 1733] | > 15 µM
O=C(NCCN1CCCC1)c1cn2c3c(c(NCC4CCCO4)c(F)cc3c1=O)Oc1cc3ccccc3cc1-2 (stereo not drawn) [compound 1734] | 3 µM
CN1CCCC1CCNC(=O)c1cn2c3c(c(NC[C@H]4CCCO4)c(F)cc3c1=O)Oc1cc3ccccc3cc1-2 (stereo partly drawn) [compound 1735] | 2.5 µM
CN1CCCC1CCNC(=O)c1cn2c3c(c(NC[C@H]4CCCO4)c(F)cc3c1=O)Oc1cc3ccccc3cc1-2 (stereo partly drawn) [compound 1736] | 3 µM
CN1CCCC1CCNC(=O)c1cn2c3c(c(NC[C@@H]4CCCO4)c(F)cc3c1=O)Oc1cc3ccccc3cc1-2 (stereo partly drawn) [compound 1737] | 4 µM
CN1CCCC1CCNC(=O)c1cn2c3c(c(F)c(F)cc3c1=O)Oc1cc3ccccc3cc1-2 (stereo not drawn) [compound 1738] | 2.25 µM
CN1CCCC1CCNC(=O)c1cn2c3c(c(F)c(F)cc3c1=O)Oc1cc3ccccc3cc1-2 (stereo not drawn) [compound 1739] | 3.3 µM
O=C(O)c1cn2c3c(c(NCC4CCCO4)c(F)cc3c1=O)Oc1cc3ccccc3cc1-2 (stereo not drawn) [compound 1740] | 8.5 µM
CN1CCC[C@@H]1CCNC(=O)c1cn2c3c(c(N4CCC(c5cnccn5)C4)c(F)cc3c1=O)Oc1cc3ccccc3cc1-2 (stereo partly drawn) [compound 1741] | 0.74 µM
CC(C)CC(CO)Nc1c(F)cc2c(=O)c(C(=O)NCCC3CCCN3C)cn3c2c1Oc1cc2ccccc2cc1-3 (stereo not drawn) [compound 1743] | > 15 µM
CN1CCCC1CCNC(=O)c1cn2c3c(c(NCC(C)(C)CO)c(F)cc3c1=O)Oc1cc3ccccc3cc1-2 (stereo not drawn) [compound 1744] | > 15 µM
CN1CCCC1CCNC(=O)c1cn2c3c(c(NCC4OCCO4)c(F)cc3c1=O)Oc1cc3ccccc3cc1-2 (stereo not drawn) [compound 1745] | > 15 µM
CC(C)OCCNc1c(F)cc2c(=O)c(C(=O)NCCC3CCCN3C)cn3c2c1Oc1cc2ccccc2cc1-3 (stereo not drawn) [compound 1746] | > 15 µM
CC(C)C(CO)Nc1c(F)cc2c(=O)c(C(=O)NCCC3CCCN3C)cn3c2c1Oc1cc2ccccc2cc1-3 (stereo not drawn) [compound 1747] | > 15 µM
CN1CCCC1CCNC(=O)c1cn2c3c(c(NC(CO)CC4CCCCC4)c(F)cc3c1=O)Oc1cc3ccccc3cc1-2 (stereo not drawn) [compound 1748] | > 15 µM
CN1CCCC1CCNC(=O)c1cn2c3c(c(NC4CCS(=O)(=O)C4)c(F)cc3c1=O)Oc1cc3ccccc3cc1-2 (stereo not drawn) [compound 1749] | 1.95 µM
CC(CNc1c(F)cc2c(=O)c(C(=O)NCCC3CCCN3C)cn3c2c1Oc1cc2ccccc2cc1-3)Oc1ccccn1 (stereo not drawn) [compound 1750] | 9.7 µM
CN1CCCC1CCNC(=O)c1cn2c3c(c(NC4CCOC(C)(C)C4)c(F)cc3c1=O)Oc1cc3ccccc3cc1-2 (stereo not drawn) [compound 1751] | > 15 µM
CN1CCCC1CCNC(=O)c1cn2c3c(c(NCc4ccoc4)c(F)cc3c1=O)Oc1cc3ccccc3cc1-2 (stereo not drawn) [compound 1752] | > 15 µM
Cc1cc(CNc2c(F)cc3c(=O)c(C(=O)NCCC4CCCN4C)cn4c3c2Oc2cc3ccccc3cc2-4)no1 (stereo not drawn) [compound 1753] | > 15 µM
CN1CCCC1CCN(CC[C@@H]1CCCN1C)C(=O)c1cn2c3c(c(N4CCC(c5cnccn5)C4)c(F)cc3c1=O)Oc1cc3ccccc3cc1-2 (stereo partly drawn) [compound 1754] | 5 µM
CN1CCCC1CCNC(=O)c1cn2c3c(c(NCc4ccco4)c(F)cc3c1=O)Oc1cc3ccccc3cc1-2 (stereo not drawn) [compound 1755] | 4.2 µM
COc1ccc(CCNc2c(F)cc3c(=O)c(C(=O)NCCN4CCCC4)cn4c3c2Oc2cc3ccccc3cc2-4)cc1OC [compound 1756] | 1.81 µM
